# The source made the active and inactive calls. No cut-off for these calls is given here. Residues, ends and D or L forms follow the SMILES beside them.
# Assays:
# Rattus norvegicus [1] = test: Acute antihypertensive activity in spontaneously hypertensive male Wistar Kyoto rat assessed as reduction in systolic blood pressure at 5 mg/kg administered via gavage measured after 2 hrs by tail-artery manometry; format: functional
# Rattus norvegicus [2] = organism: Rattus norvegicus; test: Prevention of gut microbiota dysbiosis in spontaneously hypertensive male Wistar Kyoto rat model assessed as decrease in epsilonbacteraeota abundance; format: functional, organism-based
# [3] = biological target: T1, Angiotensin-converting enzyme (Homo sapiens, UniProt P12821); test: Binding affinity to ACE (unknown origin) assessed as change in enthalpy at 800 to 1400 nM by isothermal titration calorimetric analysis; conditions: dose 800-1400 nM
# Rattus norvegicus [4] = test: Effect on spontaneously hypertensive male Wistar Kyoto rat assessed as reduction in Ang II level in serum at 2.5 mg/kg administered via gavage for 4 weeks by ELISA; format: functional, organism-based
# Rattus norvegicus [5] = test: Subacute antihypertensive activity in spontaneously hypertensive male Wistar Kyoto rat assessed as reduction in diastolic blood pressure at 2.5 mg/kg administered via gavage for 4 weeks and measured at 22 hrs post dose by tail-artery manometry; format: functional
# [6] = biological target: T1, Angiotensin-converting enzyme; test: Binding affinity to ACE (unknown origin) measured within 14 mins
# Rattus norvegicus [7] = test: Antihypertensive activity in spontaneously […] male Wistar Kyoto rat assessed as increase in fecal butyric acid level at 5 mg/kg administered via gavage for 4 weeks and measured at 22 hrs post dose by RP-HPLC analysis relative to control; format: functional
# Rattus norvegicus [8] = organism: Rattus norvegicus; test: Prevention of gut microbiota dysbiosis in spontaneously hypertensive male Wistar Kyoto rat model assessed as increase in bacteroidetes abundance; format: functional, organism-based
# Rattus norvegicus [9] = test: Effect on spontaneously hypertensive male Wistar Kyoto rat assessed as reduction in serum ACE activity by measuring hippuric acid level at 2.5 mg/kg administered via gavage for 4 weeks by RP-HPLC analysis; format: functional, organism-based
# [10] = biological target: T1, Angiotensin-converting enzyme; test: Binding affinity to ACE (unknown origin) assessed as change in entropy (-TdeltaS) at 800 to 1400 nM by isothermal titration calorimetric analysis; conditions: dose 800-1400 nM
# Rattus norvegicus [11] = test: Antihypertensive activity in spontaneously […] male Wistar Kyoto rat assessed as increase in fecal propionic acid level at 5 mg/kg administered via gavage for 4 weeks and measured at 22 hrs post dose by RP-HPLC analysis relative to control; format: functional
# Rattus norvegicus [12] = test: Antihypertensive activity in spontaneously […] male Wistar Kyoto rat assessed as increase in fecal acetic acid level at 5 mg/kg administered via gavage for 4 weeks and measured at 22 hrs post dose by RP-HPLC analysis relative to control; format: functional
# Rattus norvegicus [13] = organism: Rattus norvegicus; test: Prevention of gut microbiota dysbiosis in spontaneously hypertensive male Wistar Kyoto rat model assessed as increase in enterobacteriaceae abundance relative to control; format: functional
# Rattus norvegicus [14] = test: Acute antihypertensive activity in spontaneously hypertensive male Wistar Kyoto rat assessed as reduction in diastolic blood pressure at 5 mg/kg administered via gavage measured after 2 hrs by tail-artery manometry; format: functional
# [15] = biological target: T1, Angiotensin-converting enzyme; test: Binding affinity to ACE (unknown origin) assessed as change in entropy (deltaS) at 800 to 1400 nM by isothermal titration calorimetric analysis; conditions: dose 800-1400 nM
# Rattus norvegicus [16] = organism: Rattus norvegicus; test: Prevention of gut microbiota dysbiosis in spontaneously hypertensive male Wistar Kyoto rat model assessed as increase in roseburia abundance; format: functional, organism-based
# Rattus norvegicus [17] = test: Subacute antihypertensive activity in spontaneously hypertensive male Wistar Kyoto rat assessed as reduction in systolic blood pressure at 2.5 mg/kg administered via gavage for 4 weeks and measured at 22 hrs post dose by tail-artery manometry; format: functional
# [18] = biological target: T1, Angiotensin-converting enzyme; test: Inhibition of ACE (unknown origin) preincubated with compound for 5 mins and measured after 60 mins
# Rattus norvegicus [19] = test: Acute antihypertensive activity in spontaneously hypertensive male Wistar Kyoto rat assessed as reduction in systolic blood pressure at 2.5 mg/kg administered via gavage measured after 4 hrs by tail-artery manometry; format: functional
# Rattus norvegicus [20] = test: Effect on spontaneously hypertensive male Wistar Kyoto rat assessed as reduction in serum ACE activity by measuring hippuric acid level at 5 mg/kg administered via gavage for 4 weeks and measured at 22 hrs post dose by RP-HPLC analysis; format: functional, organism-based
# [21] = biological target: T1, Angiotensin-converting enzyme; test: Binding affinity to ACE (unknown origin) measured at 20 mins
# Rattus norvegicus [22] = test: Subacute antihypertensive activity in spontaneously hypertensive male Wistar Kyoto rat assessed as reduction in diastolic blood pressure at 5 mg/kg administered via gavage for 4 weeks and measured at 22 hrs post dose by tail-artery manometry; format: functional
# Rattus norvegicus [23] = test: Subacute antihypertensive activity in spontaneously hypertensive male Wistar Kyoto rat assessed as reduction in systolic blood pressure at 5 mg/kg administered via gavage for 4 weeks and measured at 22 hrs post dose by tail-artery manometry; format: functional
# Rattus norvegicus [24] = test: Subacute antihypertensive activity in spontaneously hypertensive male Wistar Kyoto rat assessed as reduction in systolic blood pressure at 5 mg/kg administered via gavage and measured after 1 week by tail-artery manometry; format: functional, organism-based; conditions: time 1.0 weeks
# Rattus norvegicus [25] = test: Effect on spontaneously hypertensive male Wistar Kyoto rat assessed as reduction in Ang II level in serum at 5 mg/kg administered via gavage for 4 weeks and measured at 22 hrs post dose by ELISA; format: functional, organism-based
# Rattus norvegicus [26] = organism: Rattus norvegicus; test: Prevention of gut microbiota dysbiosis in spontaneously hypertensive male Wistar Kyoto rat model assessed as fold increase in lachnospiraceae abundance; format: functional
# Rattus norvegicus [27] = organism: Rattus norvegicus; test: Prevention of gut microbiota dysbiosis in spontaneously hypertensive male Wistar Kyoto rat model assessed as fold increase in ruminococcaceae abundance; format: functional
# Rattus norvegicus [28] = organism: Rattus norvegicus; test: Prevention of gut microbiota dysbiosis in spontaneously hypertensive male Wistar Kyoto rat model assessed as fold increase in roseburia abundance; format: functional
# Rattus norvegicus [29] = organism: Rattus norvegicus; test: Prevention of gut microbiota dysbiosis in spontaneously hypertensive male Wistar Kyoto rat model assessed as fold increase in oscillibacter abundance; format: functional
# [30] = biological target: T1, Angiotensin-converting enzyme; test: Binding affinity to ACE (unknown origin) assessed as change in Gibbs free energy at 800 to 1400 nM by isothermal titration calorimetric analysis; conditions: dose 800-1400 nM
# Rattus norvegicus [31] = test: Subacute antihypertensive activity in spontaneously hypertensive male Wistar Kyoto rat assessed as reduction in diastolic blood pressure at 5 mg/kg administered via gavage and measured after 1 week by tail-artery manometry; format: functional, organism-based; conditions: time 1.0 weeks
# Rattus norvegicus [32] = organism: Rattus norvegicus; test: Prevention of gut microbiota dysbiosis in spontaneously hypertensive male Wistar Kyoto rat model assessed as increase in shannon indices; format: functional, organism-based
# Rattus norvegicus [33] = organism: Rattus norvegicus; test: Prevention of gut microbiota dysbiosis in spontaneously hypertensive male Wistar Kyoto rat model assessed as fold increase in rikenellaceae abundance; format: functional
# Rattus norvegicus [34] = test: Acute antihypertensive activity in spontaneously hypertensive male Wistar Kyoto rat assessed as reduction in diastolic blood pressure at 2.5 mg/kg administered via gavage measured after 6 hrs by tail-artery manometry; format: functional
# Rattus norvegicus [35] = organism: Rattus norvegicus; test: Prevention of gut microbiota dysbiosis in spontaneously hypertensive male Wistar Kyoto rat model assessed as increase in simpson indices; format: functional, organism-based
# Rattus norvegicus [36] = organism: Rattus norvegicus; test: Prevention of gut microbiota dysbiosis in spontaneously hypertensive male Wistar Kyoto rat model assessed as fold increase in turicibacter abundance; format: functional
# Rattus norvegicus [37] = organism: Rattus norvegicus; test: Prevention of gut microbiota dysbiosis in spontaneously hypertensive male Wistar Kyoto rat model assessed as decrease in streptococcus abundance relative to control; format: functional; set-up: scale not given: the % may be the effect or the level left
# [38] = biological target: T1, Angiotensin-converting enzyme; test: Binding affinity to ACE (unknown origin) assessed as dissociation constant by isothermal titration calorimetric analysis
# Rattus norvegicus [39] = organism: Rattus norvegicus; test: Prevention of gut microbiota dysbiosis in spontaneously hypertensive male Wistar Kyoto rat model assessed as fold increase in ruminococcaceae UCG-014 abundance; format: functional
# Rattus norvegicus [40] = organism: Rattus norvegicus; test: Prevention of gut microbiota dysbiosis in spontaneously hypertensive male Wistar Kyoto rat model assessed as decrease in parabacteroides abundance relative to control; format: functional; set-up: scale not given: the % may be the effect or the level left
# [41] = biological target: T1, Angiotensin-converting enzyme; test: Inhibition of ACE (unknown origin)
# [42] = biological target: T1, Angiotensin-converting enzyme; test: Binding affinity to ACE (unknown origin)
# T1 sequence (P12821 whole entry): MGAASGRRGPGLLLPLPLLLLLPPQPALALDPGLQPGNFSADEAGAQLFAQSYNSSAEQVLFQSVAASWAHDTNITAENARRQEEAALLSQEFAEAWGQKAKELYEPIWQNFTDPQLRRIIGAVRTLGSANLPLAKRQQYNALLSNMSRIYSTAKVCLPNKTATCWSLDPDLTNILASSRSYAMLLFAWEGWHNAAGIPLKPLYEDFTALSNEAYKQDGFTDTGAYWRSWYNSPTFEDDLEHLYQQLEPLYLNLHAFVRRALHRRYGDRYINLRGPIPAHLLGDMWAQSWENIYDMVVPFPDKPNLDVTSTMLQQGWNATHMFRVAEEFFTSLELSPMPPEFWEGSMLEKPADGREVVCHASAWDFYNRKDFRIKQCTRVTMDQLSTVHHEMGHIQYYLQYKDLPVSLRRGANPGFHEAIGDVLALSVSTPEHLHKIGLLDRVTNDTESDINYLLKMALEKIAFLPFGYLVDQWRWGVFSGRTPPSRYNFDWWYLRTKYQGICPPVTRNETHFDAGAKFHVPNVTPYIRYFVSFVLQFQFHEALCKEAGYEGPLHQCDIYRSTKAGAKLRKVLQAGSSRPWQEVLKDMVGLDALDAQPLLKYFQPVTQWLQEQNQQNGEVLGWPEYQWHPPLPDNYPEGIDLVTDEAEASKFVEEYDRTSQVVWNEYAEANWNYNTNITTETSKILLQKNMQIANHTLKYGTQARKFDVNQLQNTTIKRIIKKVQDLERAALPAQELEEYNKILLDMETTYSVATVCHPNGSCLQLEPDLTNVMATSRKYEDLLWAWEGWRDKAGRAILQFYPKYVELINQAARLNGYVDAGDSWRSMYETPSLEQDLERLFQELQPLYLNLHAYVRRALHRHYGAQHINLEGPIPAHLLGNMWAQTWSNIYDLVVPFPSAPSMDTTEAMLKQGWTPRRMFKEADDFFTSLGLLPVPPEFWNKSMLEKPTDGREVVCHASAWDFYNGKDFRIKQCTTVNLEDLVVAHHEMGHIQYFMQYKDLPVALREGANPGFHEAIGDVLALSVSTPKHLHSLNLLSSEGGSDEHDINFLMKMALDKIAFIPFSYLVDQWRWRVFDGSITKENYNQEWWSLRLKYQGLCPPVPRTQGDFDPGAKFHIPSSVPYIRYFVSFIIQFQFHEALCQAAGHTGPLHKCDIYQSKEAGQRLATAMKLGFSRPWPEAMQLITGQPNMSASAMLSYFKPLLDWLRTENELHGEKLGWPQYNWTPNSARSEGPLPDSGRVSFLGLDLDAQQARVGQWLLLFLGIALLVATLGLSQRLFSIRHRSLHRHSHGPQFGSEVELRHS
compound,measurement,setting,value
NCCCC[C@H](N[C@@H](CCc1ccccc1)C(=O)O)C(=O)N1CCC[C@H]1C(=O)O [LISINOPRIL ANHYDROUS],Activity,Rattus norvegicus [1],33 mmHg
same,Activity,Rattus norvegicus [2],Active
same,deltaH,[3],-13.4 kJ/mol
same,Activity,Rattus norvegicus [4],Active
same,Activity,Rattus norvegicus [5],32 mmHg
same,Activity,[6],Active
same,Activity,Rattus norvegicus [7],inactive
same,Activity,Rattus norvegicus [8],Active
same,Activity,Rattus norvegicus [9],Active
same,-TdeltaS,[10],-30.2 kJ/mol
same,Activity,Rattus norvegicus [11],inactive
same,Activity,Rattus norvegicus [12],inactive
same,Activity,Rattus norvegicus [13],76%
same,Activity,Rattus norvegicus [14],28 mmHg
same,deltaS,[15],24.2 cal/mol.K
same,Activity,Rattus norvegicus [16],inactive
same,Activity,Rattus norvegicus [17],39 mmHg
CSCC[C@H](NC(=O)[C@H](CCCCN)NC(=O)[C@H](C)NC(=O)[C@@H](N)CCCCN)C(=O)O (H-KAKM-OH),IC50,[18],789 µM
C[C@H](NC(=O)[C@@H](N)CCCCN)C(=O)N[C@@H](CCCCN)C(=O)O (H-Lys-Ala-Lys-OH),IC50,[18],1860 µM
C[C@H](NC(=O)[C@@H](N)CCCCN)C(=O)N[C@@H](CCCCN)C(=O)N[C@@H](Cc1ccccc1)C(=O)O (H-KAKF-OH),IC50,[18],12.5 µM
C[C@H](NC(=O)[C@@H](N)CCCCN)C(=O)N[C@@H](CCCCN)C(=O)N[C@@H](Cc1c[nH]c2ccccc12)C(=O)O (H-KAKW-OH),Activity,Rattus norvegicus [19],20 mmHg
same,Activity,Rattus norvegicus [20],Active
same,Activity,[21],Active
same,Activity,Rattus norvegicus [22],12 mmHg
same,Activity,Rattus norvegicus [23],11 mmHg
same,Activity,Rattus norvegicus [2],Active
same,Activity,Rattus norvegicus [24],Active
same,Activity,Rattus norvegicus [25],Active
same,deltaH,[3],-34.8 kJ/mol
same,fold change (FC),Rattus norvegicus [26],1.5
same,fold change (FC),Rattus norvegicus [27],4.4
same,fold change (FC),Rattus norvegicus [28],2
same,Activity,Rattus norvegicus [7],45%
same,fold change (FC),Rattus norvegicus [29],2.6
same,Activity,Rattus norvegicus [8],Active
same,deltaG,[30],-41.3 kJ/mol
same,-TdeltaS,[10],-6.57 kJ/mol
same,Activity,Rattus norvegicus [31],Active
same,Activity,Rattus norvegicus [32],Active
same,fold change (FC),Rattus norvegicus [33],4.4
same,Activity,Rattus norvegicus [34],18 mmHg
same,Activity,Rattus norvegicus [11],105%
same,Activity,Rattus norvegicus [35],Active
same,Activity,Rattus norvegicus [12],28%
same,IC50,[18],2.02 µM
same,fold change (FC),Rattus norvegicus [36],2.3
same,Activity,Rattus norvegicus [13],85%
same,deltaS,[15],5.28 cal/mol.K
same,Activity,Rattus norvegicus [37],43%
same,Kd,[38],0.0577 µM
same,fold change (FC),Rattus norvegicus [39],1.8
same,Activity,Rattus norvegicus [40],44%
C[C@H](NC(=O)[C@@H](N)CCCCN)C(=O)N[C@@H](CCCCN)C(=O)N1CCC[C@H]1C(=O)O (H-KAKP-OH),Activity,[21],Active
same,deltaH,[3],-7.7 kJ/mol
same,deltaG,[30],-39.1 kJ/mol
same,-TdeltaS,[10],-31.4 kJ/mol
same,IC50,[18],7.23 µM
same,deltaS,[15],25.2 cal/mol.K
same,Kd,[38],0.141 µM
CC(C)C[C@H](NC(=O)[C@H](Cc1c[nH]c2ccccc12)NC(=O)[C@@H](N)CCCCN)C(=O)N1CCC[C@H]1C(=O)O (H-KWLP-OH),IC50,[41],5 µM
CC(C)C[C@H](N)C(=O)N[C@@H](C)C(=O)N1CCC[C@H]1C(=O)N[C@@H](Cc1ccc(O)cc1)C(=O)N[C@@H](Cc1c[nH]c2ccccc12)C(=O)O (H-LAPYW-OH),IC50,[42],5.42 µM
N=C(N)NCCC[C@H](NC(=O)[C@@H]1CCCN1C(=O)[C@H](CC(N)=O)NC(=O)CN)C(=O)O (H-GNPR-OH),IC50,[18],3050 µM

# From ChEMBL document CHEMBL6177964 (Eur J Med Chem, 2025)
